Measurements as given in patent US20180125992A1, “DRUG DELIVERY CONJUGATES OF TERTIARY AMINE […]” (ENDOCYTE, INC., priority 2016, published 2018).

Tested on: KB cells
Experiment: In vitro FR specific activity of folate conjugates: 3H-thymidine incorporation in KB cells
Format: cell-based
Settings: 2 h pulse at 37° C., chase up to 72 h, without excess folate
Procedure: KB cells were seeded in individual 24-well Falcon plates and allowed to form nearly confluent monolayers overnight in FFRPMI/HIFCS. Thirty minutes prior to the addition of folate-conjugate, spent medium was aspirated from all wells and replaced with either fresh FFRPMI or FFRPMI supplemented with 100 μM FA. Each well then received 1 mL of medium containing increasing concentrations of folate-conjugate (3 wells per sample). Cells were pulsed for 2 h at 37° C., rinsed 4 times with 0.5 mL of medium and then chased in 1 mL of fresh medium up to 72 h. Spent medium was aspirated from all wells and replaced with fresh medium containing 5 μCi/mL of ^3H-thymidine. Following a 2 h incubation at 37° C., cells were washed 3 times with 0.5 mL of PBS and then treated with 0.5 mL of ice-cold 5% trichloroacetic acid per well. After 15 min, the trichloroacetic acid was aspirated and the cells solubilized by the addition of 0.5 mL of 0.25 N sodium hydroxide for 15 min at room temperature. Four hundred and fifty μL of each solubilized sample were transferred to scintillation vials containing 3 mL of Ecolume scintillation cocktail and counted in a liquid scintillation counter. Final results were expressed as the percentage of ^3H-thymidine incorporation relative to untreated controls.

| Compound | IC50 [nM] |
| --- | --- |
| CCCC(=O)OCN(C(=O)[C@@H](NC(=O)[C@H]1CCCC[N+]1(C)CCSSC[C@H](NC(=O)[C@H](CC(=O)O)NC(=O)[C@H](CC(=O)O)NC(=O)[C@H](CCCNC(=N)N)NC(=O)[C@H](CC(=O)O)NC(=O)CC[C@H](NC(=O)c1ccc(NCc2cnc3nc(N)[nH]c(=O)c3n2)cc1)C(=O)O)C(=O)O)C(C)CC)[C@H](C[C@@H](OC(C)=O)c1nc(C(=O)N[C@@H](Cc2ccccc2)C[C@H](C)C(=O)OC)cs1)C(C)C (some centres unmarked) [Compound 1] | 5 |
| CC/C=C/CN(C(=O)[C@@H](NC(=O)[C@H]1CCCC[N+]1(C)Cc1ccc(SSC[C@H](NC(=O)[C@H](CC(=O)O)NC(=O)[C@H](CC(=O)O)NC(=O)[C@H](CCCNC(=N)N)NC(=O)[C@H](CC(=O)O)NC(=O)CC[C@H](NC(=O)c2ccc(NCc3cnc4nc(N)[nH]c(=O)c4n3)cc2)C(=O)O)C(=O)O)cc1)C(C)CC)[C@H](C[C@@H](OCC)c1nc(C(=O)N[C@@H](Cc2ccc(O)cc2)C[C@H](C)C(=O)O)cs1)C(C)C (some centres unmarked) [Compound 2] | 7 |
